From US8044098B2, “Use of hydroxybenzoic acids and their esters and analogues for preventing or treating virus infection” (Shenghua Guangzhou Pharmaceutical Science & Technology Co., …, priority 2005, dated 2011)

How the values were obtained:
[1] = assay type: physicochemical
Protocol: 20 ml 1,2-propylene glycol, 15 ml Tween-80 and 5 ml azone were mixed together and sterile distilled water was added to bring the volume to 100 ml. The pH value of the solution was adjusted to pH 6.8 with NaOH or HCl to obtain a micro emulsion. 10 g propyl gallate and 10 g gallic acid were dissolved in the micro emulsion, respectively, and mixed well. 10 ml of each micro emulsion was added to a capped transparent glass tube. Both solutions were colorless. The absorbance of the two solutions at 400˜500 nm was measured with spectrophotometry and their absorbance was under 0.15. […] Measured by spectrophotometry again, the absorbance of the gallic acid solution was 1.2 and that of the propyl gallate solution was 0.4.

HSV infection = assay: External treatment of HSV infection in clinical tests; assay type: in vivo, human; conditions: patients with HSV infection
Text: Twenty-two patients who were clinically diagnosed with HSV infection were randomly selected and divided into two groups. Acyclovir ointment and micro emulsion containing propyl gallate prepared as described in Example 1 were applied to the two groups, respectively, on the affected areas of the patients three times a day.

HPV 16/18 = assay: Drug screening by quantitative fluorescent PCR analysis of HPV 16/18 in condyloma acuminata homogenate; set-up: species or system human papillomavirus (HPV)
HPV 6/11 = assay: Drug screening by quantitative fluorescent PCR analysis of HPV 6/11 in condyloma acuminata homogenate; set-up: species or system human papillomavirus (HPV)
[2] = 24 hours after adding the test compound

CCCOC(=O)c1cc(O)c(O)c(O)c1 [Propyl gallate]
colour of solution, initial ([1]; micro emulsion pH 6.8, freshly prepared): colorless
absorbance after 30 days ([1]; micro emulsion pH 6.8, kept at room temperature for 30 days, 400˜500 nm): 0.4
colour of solution after 30 days ([1]; micro emulsion pH 6.8, room temperature for 30 days): remained colorless
effectiveness in treating HSV infection compared with acyclovir ointment (HSV infection): more effective
average time for recovery (HSV infection; applied on affected areas three times a day): 3 days
HPV 16/18 Virus (copies/ml) (HPV 16/18; 50 μl 10% micro emulsion + 50 μl HPV sample homogenate, 37° C., 24 hours, saline control 1.40 × 10^5): 0 copies/ml
HPV 16/18 detected by FQ-PCR (in words) (HPV 16/18; [2]): no HPV 6/11 or HPV 16/18 was detected
HPV 6/11 Virus (copies/ml) (HPV 6/11; 50 μl 10% micro emulsion + 50 μl HPV sample homogenate, 37° C., 24 hours, saline control 1.45 × 10^6): 0 copies/ml
HPV 6/11 detected by FQ-PCR (in words) (HPV 6/11; [2]): no HPV 6/11 or HPV 16/18 was detected
